Results reported in patent US10889847B2, “Kit and discs for use in disc diffusion antibiotic sensitivity testing” (YISSUM RESEARCH DEVELOPMENT COMPANY OF THE HEBREW …, priority 2015, dated 2021).

Columns and labels:
[1] = at 12 hours after 1 gram dosing; cited from earlier work
[2] = system: E. coli strain W574; assay: MIC, strain W574; assay type: cell-based; details: Escherichia coli
[3] = system: E. coli clinical strain U453; assay: Tolerance Diffusion test (TDtest), strain U453; assay type: cell-based; details: ertapenem disk (0.25 microgram), glucose disk in step II
Description: (§1) 2 Disc Test (TDtest) Procedure
(§2) The TDtest consists of two steps:
(§3) Step I—Incubation with Antibiotics:
(§4) Circa 10^7 bacteria at stationary phase (100 microliter) were plated on LBL nutrient agar plate. An antibiotic disc was placed on the agar. The plate with the antibiotic disc was incubated for at least 4 hours and up to 30 hours, preferably about 18 hours at 37° C.
(§5) The amount of antibiotics in each disk was adjusted to reach a concentration below the MIC in the inhibition zone after an overnight incubation at 37° C. Many commercial disks contain antibiotics in amounts that are too high for the concentration to fall below the MIC after this time. When this was the case, custom disks were prepared as specified herein below.
(§6) Step II—Incubation with Nutrient:
(§7) This step was carried out in one of the following protocols:
(§8) a. The antibiotic disk was replaced with a nutrient (i.e. 2 mg glucose) disk at the end of the antibiotic incubation time. The plate was incubated again for an additional overnight (at least 5 hours and up to 24 hours, preferably about 18 hours) at 37° C.
(§9) b. Nutrient solution (i.e., 2 mg glucose, or 5 microliter of 40% glucose solution) was added directly on the antibiotic disk, instead of replacing it.
(§10) c. Two phases disk was prepared, by impregnating 6 mg glucose on the upper side of the disk.
(§11) After the completion of the above steps, the growth of the bacteria was visually inspected.

[4] = system: E. coli clinical strain W574; assay: Tolerance Diffusion test (TDtest), strain W574; assay type: cell-based; details: ertapenem disk (0.25 microgram), glucose disk in step II
Description: as §1, §2, §3, §4, §5, §6, §7, §8, §9, §10, §11

[5] = system: E. coli strain U453; assay: MIC, strain U453; assay type: cell-based; details: Escherichia coli
[6] = system: E. coli strains W574 and U453; assay: Survival fraction in liquid culture, W574 versus U453; assay type: cell-based; details: ertapenem 10 microgram/ml
Description: (§12) Overnight bacterial cultures were diluted 1:100 in fresh medium containing antibiotic and incubated at 37° C. for designated time. Bacterial survival was determined by the most probable number-counting method (MPN), as described in Hurley, M. A. & Roscoe, M. E. Automated Statistical-Analysis of Microbial Enumeration by Dilution Series. J Appl. Bacteriol. 55:159-164 (1983).

[7] = system: tbl3a; assay: Time-kill experiment in liquid culture, tbl3a; assay type: cell-based, E. coli; details: for fraction of survivals: antibiotic 100 microgram/ml, after 2.6 hours
Description: as §12
These findings were verified by measuring the survival of tbl3a in liquid culture after exposure to the two antibiotics. An overnight culture was diluted and exposed either to ampicillin (100 microgram/ml) or kanamycin (100 microgram/ml). […] The large fraction of survivals in Ampicillin (12% after 2.6 hours) was predicted by the late colonies appearance, and is absent in Kanamycin (1.4E-8% after 2.6 hours).

[8] = system: tbl5a; assay: Tolerance Diffusion test (TDtest), strain tbl5a, three growth media; assay type: cell-based, E. coli; details: after second step, LB agar, Mueller-Hinton agar, Mueller-Hinton+5% Blood agar
Description: FIG. 13A-13C show TDtest performed on three different growth media. The results are shown after the second step of TDtest examining the effect of ampicillin on tbl5a.
FIG. 13A is a LB agar plate.
FIG. 13B is a Mueller-Hinton agar plate.
FIG. 13C is a Mueller-Hinton+5% Blood agar plate.
as §1, §2, §3, §4, §5, §6, §7, §8
b. […]

[9] = system: E. coli tolerant strain tbl3a; assay: Tolerance Diffusion test (TDtest), strain tbl3a; assay type: cell-based
Description: as §1, §2, §3, §4, §5, §6, §7, §8
b. […]
Tolerant bacteria are identified by the use of two different TDtest methods, the two-disks TDtest and the single disk TDtest. […] The growth of the bacterium was monitored at several time points (0, 8, 17, 30 and 36 hours from the beginning of the test).

[10] = system: E. cloacae clinical strain B340; assay: Tolerance Diffusion test (TDtest), strain B340; assay type: cell-based; details: ampicillin disk replaced with glucose disk after 18 hours, read at 36 hours
Description: as §1, §2, §3, §4, §5, §6, §7, §8, §9, §10
After the completion of the above steps, the growth of the bacteria was visually inspected. […]

[11] = system: many species; details: in many species; cited from earlier work

## C[C@@H](O)[C@H]1C(=O)N2C(C(=O)O)=C(S[C@@H]3CN[C@H](C(=O)Nc4cccc(C(=O)O)c4)C3)[C@H](C)[C@H]12 [ertapenem]
[1]
  mean serum concentration: ~10 microgram/ml
[2]
  MIC: < 0.05 µg/mL
[3]
  tolerance level by TDtest (colonies inside the inhibition zone after step II): low tolerance
[4]
  tolerance level by TDtest (colonies inside the inhibition zone after step II): high tolerance
[5]
  MIC: < 0.05 µg/mL
[6]
  fraction of survival of a liquid culture, W574 versus U453: higher tolerance

## CC1(C)S[C@@H]2[C@H](NC(=O)[C@H](N)c3ccccc3)C(=O)N2[C@H]1C(=O)O [ampicillin]
[7]; 100 microgram/ml each
  survival fraction under ampicillin relative to kanamycin: three orders of magnitude lower
[7]
  fraction of survivals: 12%
[8]
  tolerance level by TDtest: medium tolerance (“medium tolerance” is 10 to a few hundred colonies in the inhibition zone)
[9]; after 36 hours, two-disks TDtest (glucose disk after 18 hours) or single disk TDtest
  bacterial colonies in TDtest plate: bacterial colonies are well seen
[9]; ampicillin 10 microgram or kanamycin 15 microgram disk
  tolerance by TDtest: very tolerant
[10]
  tolerance by TDtest (colonies in inhibition zone): tolerant
[11]
  MIC: around 4 microgram/ml

## NC[C@H]1O[C@H](O[C@H]2[C@H](O)[C@@H](O[C@H]3O[C@H](CO)[C@@H](O)[C@H](N)[C@H]3O)[C@H](N)C[C@@H]2N)[C@H](O)[C@@H](O)[C@@H]1O [kanamycin]
[7]
  fraction of survivals: 1.4E-8%
